Assay results: PubChem BioAssay (NCI)
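Briefly, cells in 96-well plates were exposed to five compound concentrations for 48 h, and endpoints were estimated by linear interpolation. TGI is the concentration that stops growth completely.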

Legend:
Assay in all cases: DTP human tumour cell line panel, 48 h
U251 CNS = system: U251 CNS
HOP-92 NSCLC = system: HOP-92 NSCLC
OVCAR-4 ovarian = system: OVCAR-4 ovarian
SNB-78 CNS = system: SNB-78 CNS
EKVX NSCLC = system: EKVX NSCLC
A549 NSCLC = system: A549 NSCLC
SK-MEL-5 melanoma = system: SK-MEL-5 melanoma
TK-10 renal = system: TK-10 renal
HOP-18 NSCLC = system: HOP-18 NSCLC
DMS 114 small cell lung = system: DMS 114 small cell lung
MOLT-4 leukemia = system: MOLT-4 leukemia
SF-268 CNS = system: SF-268 CNS
A498 renal = system: A498 renal
HOP-62 NSCLC = system: HOP-62 NSCLC
SF-539 CNS = system: SF-539 CNS
OVCAR-5 ovarian = system: OVCAR-5 ovarian
COLO 205 colon = system: COLO 205 colon
SK-MEL-28 melanoma = system: SK-MEL-28 melanoma
M14 melanoma = system: M14 melanoma
NCI-H460 lung = system: NCI-H460 lung
CAKI-1 renal = system: CAKI-1 renal
ACHN renal = system: ACHN renal
IGROV1 ovarian = system: IGROV1 ovarian
UO-31 renal = system: UO-31 renal
HCT-15 colon = system: HCT-15 colon
SK-MEL-2 melanoma = system: SK-MEL-2 melanoma
SF-295 CNS = system: SF-295 CNS
SN12C renal = system: SN12C renal
XF 498 CNS = system: XF 498 CNS
SW-620 colon = system: SW-620 colon
DLD-1 colon = system: DLD-1 colon
MALME-3M melanoma = system: MALME-3M melanoma
KM20L2 colon = system: KM20L2 colon
OVCAR-3 ovarian = system: OVCAR-3 ovarian
UACC-257 melanoma = system: UACC-257 melanoma
LXFL 529 NSCLC = system: LXFL 529 NSCLC
786-0 renal = system: 786-0 renal
UACC-62 melanoma = system: UACC-62 melanoma
OVCAR-8 ovarian = system: OVCAR-8 ovarian
DMS 273 small cell lung = system: DMS 273 small cell lung
K-562 leukemia = system: K-562 leukemia
SNB-19 CNS = system: SNB-19 CNS
HT29 colon = system: HT29 colon
HL-60(TB) leukemia = system: HL-60(TB) leukemia
CCRF-CEM leukemia = system: CCRF-CEM leukemia
M19-MEL melanoma = system: M19-MEL melanoma
RXF 393 renal = system: RXF 393 renal
NCI-H23 lung = system: NCI-H23 lung
RPMI-8226 leukemia = system: RPMI-8226 leukemia
SK-OV-3 ovarian = system: SK-OV-3 ovarian
RXF-631 renal = system: RXF-631 renal
HCT-116 colon = system: HCT-116 colon
SR leukemia = system: SR leukemia
NCI-H522 lung = system: NCI-H522 lung
HCC-2998 colon = system: HCC-2998 colon

What does the source list for `O=[N+]([O-])c1cccc(C2N3CCCCC3[C@@H]3c4[nH]c5ccccc5c4CCN23)c1` (stereo not given in full)?
TGI (U251 CNS): 28.4 µM; TGI (HOP-92 NSCLC): 36.2 µM; TGI (OVCAR-4 ovarian): 32.2 µM; TGI (SNB-78 CNS): 26.1 µM; TGI (EKVX NSCLC): 69.9 µM; TGI (A549 NSCLC): 45.5 µM; TGI (SK-MEL-5 melanoma): 27.2 µM; TGI (TK-10 renal): 35.4 µM; TGI (HOP-18 NSCLC): > 100 µM; TGI (DMS 114 small cell lung): 22.2 µM; TGI (MOLT-4 leukemia): > 100 µM; TGI (SF-268 CNS): 27.4 µM; TGI (A498 renal): 29.5 µM; TGI (HOP-62 NSCLC): 30.2 µM; TGI (SF-539 CNS): 29.7 µM; TGI (OVCAR-5 ovarian): 32.7 µM; TGI (COLO 205 colon): 32.8 µM; TGI (SK-MEL-28 melanoma): 29.8 µM; TGI (M14 melanoma): 28 µM; TGI (NCI-H460 lung): 31.1 µM; TGI (CAKI-1 renal): > 100 µM; TGI (ACHN renal): 38.7 µM; TGI (IGROV1 ovarian): 39.2 µM; TGI (UO-31 renal): 25.6 µM; TGI (HCT-15 colon): 23.3 µM; TGI (SK-MEL-2 melanoma): 22 µM; TGI (SF-295 CNS): 31.4 µM; TGI (SN12C renal): 27.6 µM; TGI (XF 498 CNS): 27 µM; TGI (SW-620 colon): > 100 µM; TGI (DLD-1 colon): 29.2 µM; TGI (MALME-3M melanoma): 18.9 µM; TGI (KM20L2 colon): 22.9 µM; TGI (OVCAR-3 ovarian): 32.2 µM; TGI (UACC-257 melanoma): 27 µM; TGI (LXFL 529 NSCLC): 60.8 µM; TGI (786-0 renal): 43.3 µM; TGI (UACC-62 melanoma): 19.9 µM; TGI (OVCAR-8 ovarian): > 100 µM; TGI (DMS 273 small cell lung): 26 µM; TGI (K-562 leukemia): 19.6 µM; TGI (SNB-19 CNS): 45.6 µM; TGI (HT29 colon): 19.8 µM; TGI (HL-60(TB) leukemia): 29 µM; TGI (CCRF-CEM leukemia): 41 µM; TGI (M19-MEL melanoma): 25 µM; TGI (RXF 393 renal): 18.8 µM; TGI (NCI-H23 lung): 25.3 µM; TGI (RPMI-8226 leukemia): > 100 µM; TGI (SK-OV-3 ovarian): 52.1 µM

How did the TGI (U251 CNS) turn out when `O=C(Nc1ccc(Cl)cc1Cl)C(=O)Nn1c(=S)[nH]c2ccccc2c1=O` was run?
Its TGI is > 100 µM.

What about the TGI (RXF-631 renal) of the same compound?
The TGI was > 100 µM.

What about the TGI (SNB-78 CNS) of the same compound?
The TGI was > 100 µM.

And the TGI (A549 NSCLC)?
Its TGI is > 100 µM.

What about the TGI (HCT-116 colon) of the same compound?
Its TGI is > 100 µM.

What about the TGI (HOP-18 NSCLC) of the same compound?
The TGI was > 100 µM.

And the TGI (DMS 114 small cell lung)?
The TGI was > 100 µM.

What about the TGI (MOLT-4 leukemia) of the same compound?
The TGI was > 100 µM.

What about the TGI (SF-268 CNS) of the same compound?
Its TGI is > 100 µM.

And the TGI (SR leukemia)?
The TGI was > 100 µM.

What about the TGI (SK-MEL-28 melanoma) of the same compound?
The TGI was > 100 µM.

What about the TGI (M14 melanoma) of the same compound?
Its TGI is > 100 µM.

What about the TGI (NCI-H460 lung) of the same compound?
The TGI was > 100 µM.

What about the TGI (NCI-H522 lung) of the same compound?
The TGI was > 100 µM.

And the TGI (UO-31 renal)?
Its TGI is > 100 µM.

And the TGI (HCT-15 colon)?
The TGI was > 100 µM.

What about the TGI (SK-MEL-2 melanoma) of the same compound?
The TGI was > 100 µM.

What about the TGI (HCC-2998 colon) of the same compound?
The TGI was > 100 µM.

And the TGI (MALME-3M melanoma)?
The TGI was > 100 µM.

What about the TGI (OVCAR-3 ovarian) of the same compound?
The TGI was > 100 µM.

And the TGI (LXFL 529 NSCLC)?
The TGI was > 100 µM.

And the TGI (786-0 renal)?
The TGI was > 100 µM.

And the TGI (DMS 273 small cell lung)?
Its TGI is > 100 µM.

And the TGI (K-562 leukemia)?
Its TGI is > 100 µM.

And the TGI (HL-60(TB) leukemia)?
Its TGI is > 100 µM.

And the TGI (CCRF-CEM leukemia)?
The TGI was > 100 µM.

What about the TGI (M19-MEL melanoma) of the same compound?
Its TGI is > 100 µM.

And the TGI (RXF 393 renal)?
The TGI was > 100 µM.

And the TGI (RPMI-8226 leukemia)?
Its TGI is > 100 µM.

And the TGI (SK-OV-3 ovarian)?
The TGI was > 100 µM.
